# How the values were obtained:
# mice [1] = test: Oxaliplatin-induced neuropathic pain, von Frey test (tactile allodynia); type: in vivo, Albino Swiss mice; details: 10 mg/kg i.p.
# Protocol: Furthermore, to assess the response to mechanical stimuli (i.e., tactile/mechanical) allodynia), the von Frey test was carried out with application of the electronic von Frey unit (Panlab, Cornellà de Llobregat, Spain) equipped with a fiber, the distal end of which was applied to the right hind paw of the mouse. The device automatically recorded the pressure force (in grams) applied until the paw withdrawal response occurred. In the absence of pain, an increase in the pressure value was observed. The force at which the animal withdrew its paw was considered the pain threshold for the mechanical stimulus. Measurements were taken before streptozotocin administration (in normoglycemic mice) and again 21 days later, both before and after compound administration, in diabetic mice (glucose level > 300 mg/dL) that had developed mechanical allodynia. On the day of the experiment, each mouse was placed in an observation chamber with a wire mesh bottom and was allowed to habituate for 1 h. After the habituation period, in order to obtain baseline values, each mouse was tested 3 times alternately in each hind paw, allowing at least 30 s between each measurement. Then, the mice were pretreated intraperitoneally with compound or vehicle, and 30 min later the animals were tested again and three measurements were taken, the mean of which was calculated to obtain the mean values after drug administration for each mouse. The anti-allodynic effect was defined as an increase in the pressure force value required to elicit a pain response, compared to the control group.
# To assess the response to mechanical stimuli (i.e., tactile/mechanical allodynia), the von Frey test was performed using an electronic von Frey device (Bioseb, Vitrolles, France), as described in Section 4.4.5. In this assay, measurements were taken before and 3 h after oxaliplatin administration, as well as 7 days later. […] A total of 30 min after administration, the assessment was repeated using the same procedure.
# mice [2] = test: Glutamate-induced pain test; type: in vivo, Albino Swiss mice; details: vs vehicle
# Protocol: Prior to the experimental procedure, individual mice were acclimatized in an observation chamber (n = 128). Thirty minutes before the test, the compounds under investigation were administered intraperitoneally (i.p.). A volume of 20 μL of a glutamate solution, containing 30 μmol per mouse paw, was subcutaneously injected into the ventral surface of the right hind paw to induce a pain response. Glutamate-induced nociception was assessed 15 min post-injection. The duration of time spent licking the injected paw was recorded using a chronometer and was interpreted as an indicator of nociception.
# mice [3] = test: Capsaicin-induced neurogenic pain test; type: in vivo, Albino Swiss mice; details: vs vehicle
# Protocol: The examined compounds were administered 30 min before the test (n = 112). The pain reaction was induced by injecting 20 μL of a capsaicin solution prepared in saline (1.6 μg capsaicin per mouse paw) into the dorsal surface of the right hind paw for further details. The animals were immediately placed individually into glass beakers and the amount of time spent licking the injected paw was recorded for 5 min with a chronometer.
# mice [4] = test: Streptozotocin-induced diabetic neuropathy, hot plate test (thermal hyperalgesia); type: in vivo, Albino Swiss mice; details: diabetic (STZ) mice, 10 mg/kg i.p.; for Analgesic activity (hot plate): vs pre-drug latency
# Protocol: The induction of diabetes neuropathy in mice was achieved through the administration of streptozotocin (STZ), dissolved in PBS at a dose of 200 mg/kg in a constant volume of 0.1 mL/10 g of mouse body weight, intraperitoneally; (n = 50). Blood glucose levels were measured immediately prior to the administration of streptozotocin and 14 and 21 days following this administration in order to confirm the presence of hyperglycemia. For this purpose, 5 µL of blood was drawn from the tail vein of the mice using a strip glucose meter (AccuChek Active, Roche, Boulogne-Billancourt, France).
# To assess increased sensitivity to thermal stimuli, we used a hot plate testing apparatus (Panlab/Harvard Apparatus, Cornellà de Llobregat, Spain), following the methodology originally described by. In this procedure, after determining the baseline pain response time, 30 min after drug administration, mice were placed on a hot plate maintained at 55 °C and monitored for pain-related behaviors such as licking their hind paws or jumping. To avoid potential damage to paw tissue, a time limit of 45 s was set.
# rats = test: Carrageenan-induced mechanical hyperalgesia (pain pressure threshold, Randall-Selitto); type: in vivo, Wistar rats; details: for Pain Threshold: mean ± SEM, rats; for Increase in pain threshold: vs control
# Protocol: The acute and local inflammation and paw edema was induced by intraplantar (i.pl.) injection of 0.1 mL of 1% carrageenan solution in PBS into the rat’s right hind paw, according to the modified method of Winter and Lence, as described previously; (n = 84). The paw volume was measured using the dislocation of the water column of the plethysmometer (Type a, 7140; Plethysmometer, Ugo Basile, Gemonio, Italy) before (V0) and at 1, 2, and 3 h (V1, V2, V3) after i.pl. carrageenan injection. […] Vehicle (1% Tween 80) was administered by the same route as the tested compounds.
# Furthermore, we performed the pain pressure threshold test to assess heightened sensitivity to mechanical stimuli. The experiment was conducted based on the method described by Randall and Selitto [58], with certain modifications. An analgesymeter (AnalgesyMeter 37215, Ugo Basile, Gemonio, Italy) was used to gradually apply increasing pressure (measured in grams) to the plantar surface of the right hind paw of the rat until paw withdrawal occurred. At this point, the intensity of the applied force (in grams) was recorded as the withdrawal threshold. The maximum force intensity was set at 250 g. Carrageenan induces a decrease in the nociceptive threshold in response to a mechanical stimulus, a condition referred to as hyperalgesia. For each rat, paw withdrawal thresholds were recorded both before (0 h) and 1, 2, and 3 h after carrageenan administration (i.e., 3.5 h after intraperitoneal pretreatment with the tested compounds). […] The analgesic effect of the tested compounds was assessed in comparison with the control group (1% Tween 80); the injection was performed intraperitoneally within 30 min of carrageenan administration. An analgesic effect occurs when the compound administered produces a pain response with greater pressure than the control group.
# [5] = early phase, 3 h after oxaliplatin
# [6] = late phase, 7 days after oxaliplatin
# [7] = 10 mg/kg i.p., 0 h (before carrageenan)
# [8] = 10 mg/kg i.p., 1 h after carrageenan
# [9] = 10 mg/kg i.p., 2 h after carrageenan
# [10] = 10 mg/kg i.p., 3 h after carrageenan
# [11] = 20 mg/kg i.p., 0 h (before carrageenan)
# [12] = 20 mg/kg i.p., 1 h after carrageenan
# [13] = 20 mg/kg i.p., 2 h after carrageenan
# [14] = 20 mg/kg i.p., 3 h after carrageenan
Compound,Analgesic activity (von Frey) (mice [1]; [5]) [%],Pain threshold after compound administration (von Frey) (mice [1]; [5]) [g],Analgesic activity (von Frey) (mice [1]; [6]) [%],Pain threshold after compound administration (von Frey) (mice [1]; [6]) [g],Reduction of glutamate-induced pain reaction (mice [2]; 10 mg/kg i.p.) [%],Reduction of glutamate-induced pain reaction (mice [2]; 20 mg/kg i.p.) [%],Reduction of capsaicin-induced neurogenic pain (mice [3]; 5 mg/kg i.p.) [%],Reduction of capsaicin-induced neurogenic pain (mice [3]; 10 mg/kg i.p.) [%],Reduction of capsaicin-induced neurogenic pain (mice [3]; 20 mg/kg i.p.) [%],"Pain response latency time after compound administration (hot plate, 55 °C) (mice [4])",Pain Threshold (rats; [7]) [g],Pain Threshold (rats; [9]),Pain Threshold (rats; [10]),Pain Threshold (rats; [11]) [g],Pain Threshold (rats; [12]) [g],Pain Threshold (rats; [13]) [g],Pain Threshold (rats; [14]) [g],"Increase in pain threshold (rats; 20 mg/kg, 1 h) [%]","Increase in pain threshold (rats; 20 mg/kg, 2 h) [%]","Increase in pain threshold (rats; 20 mg/kg, 3 h) [%]",also measured
O=C1c2ccccc2C(=O)N1CC(O)CN1CCN(c2ccccc2)CC1 (centres unmarked) [Compound F1],60.7,3.39 ± 0.46,35,3.9 ± 0.34,82.3,87.2,31.7,40.8,69.0,25.59 ± 1.84 s,128.3 ± 1.1,142.5 ± 2.1 g,134.2 ± 2.1 g,130.0 ± 2.9,143.3 ± 2.5,148.3 ± 2.8,146.7 ± 1.1,20.2,24.4,25,"Reduction of glutamate-induced pain reaction (mice [2]; 5 mg/kg i.p.): 41.3%; Analgesic activity (hot plate) (mice [4]): 56.6%; Pain Threshold (rats; [8]): 138.3 ± 2.1 g; Increase in pain threshold (rats; 10 mg/kg, 1 h): 16%; Increase in pain threshold (rats; 10 mg/kg, 2 h): 19.5%; Increase in pain threshold (rats; 10 mg/kg, 3 h): 14.2%"
COc1ccccc1N1CCN(CC(O)CN2C(=O)c3ccccc3C2=O)CC1 (centres unmarked) [Compound F2],81,3.91 ± 0.29,45.45,4.0 ± 0.34,62.9,68.7,31,56,74.7,30.36 s,132.5 ± 2.1,127.5 ± 1.5 ns g,130 ± 2.6 ns g,132.5 ± 2.8,147.5 ± 2.5,141.7 ± 1.7,139.2 ± 0.8,10,14,11.3,"Reduction of glutamate-induced pain reaction (mice [2]; 5 mg/kg i.p.): 54.3%; Analgesic activity (hot plate) (mice [4]): 49.33%; Effect on pain threshold (in words) (rats; 10 mg/kg, over 1–3 h): lack of analgesic activity"
O=C1c2ccccc2C(=O)N1CC(O)CN1CCN(c2cccc(C(F)(F)F)c2)CC1 (centres unmarked) [Compound F3],82.9,3.53 ± 0.08,37.59,3.99,61,70,,,48.46,24.24 ± 1.46 s,134.2 ± 2.4,142.5 ± 2.1 g,137.5 ± 1.7 g,135.8 ± 1.5,148.3 ± 3.3,150.8 ± 3.9,148.3 ± 3.1,11.9,19,18.6,"Analgesic activity (hot plate) (mice [4]): 42.92%; Pain Threshold (rats; [8]): 141.7 ± 1.7 g; Increase in pain threshold (rats; 10 mg/kg, 1 h): 7%; Increase in pain threshold (rats; 10 mg/kg, 2 h): 12.5%; Increase in pain threshold (rats; 10 mg/kg, 3 h): 10%"
O=C1c2ccccc2C(=O)N1CC(O)CN1CCN(C(c2ccccc2)c2ccccc2)CC1 (centres unmarked) [Compound F4],76.2,3.56 ± 0.32,24.39,3.57 ± 0.33,,53.7,42,33.6,57.25,did not affect the latency time,131.7 ± 1.7,141.7 ± 1.7 g,139.2 ± 1.2 g,134.2 ± 1.5,144.2 ± 0.8,145 ± 1.5,140.8 ± 0.8,14.4,16,14.2,"Pain Threshold (rats; [8]): 139.2 ± 2.0 g; Increase in pain threshold (rats; 10 mg/kg, 1 h): 10.5%; Increase in pain threshold (rats; 10 mg/kg, 2 h): 13.4%; Increase in pain threshold (rats; 10 mg/kg, 3 h): 12.9%"
